Measurements from patent US20240197876A1, “METHODS TO DETERMINE TREATMENT EFFICACY WITH GAMMA-DELTA T CELLS” (THE TRUSTEES OF THE UNIVERSITY OF PENNSYLVANIA, priority 2021, published 2024).
“Also recorded” adds a separate entry of the source.

Tests used:
Vδ2 T cells = experiment: Vδ2 T cell expansion from cultured PBMCs (γδTCR activator with or without TLR agonist), FACS; assay type: cell-based, human; conditions: for co-stimulatory effect on IPP induced Vδ2 T cell expansion: IPP 5 μg/ml plus TLR agonist, day 5 or 7
Experimental: Primary cells and cell lines: PBMCs and monocytes were obtained from Human Immunology Core at the University of Pennsylvania, which were obtained from healthy donors-Using informed consent and approved by Institutional Review Board. For γδ T cell expansion, PBMCs were cultured with RPMI1640 media supplemented with 10% FBS (HyClone, GE Healthcare, UT, USA), 100 U/ml Penicillin-Streptomycin, 2 mM L-Glutamine, 1/1000 2-Mercaptoethanol (2-Me) (Gibco, ThermoFisher Scientific, MA, USA) (or without 2-Me as indicated) and 200 units/ml of Recombinant Human IL-2 (PeproTech, NJ, USA) in 24-well microplates, new media added and supplemented every other day. TCR-γδ T cells were expanded in 24-well tissue culture treated microplates that were coated with mouse-monoclonal Anti-Pan-TCR γδ antibody (1.0 ug/ml in PBS; IMMU510, IM1349, Beckman). For naive γδT cell isolation, PBMCs were purified using a commercial Human TCR γ/δ T Cell Isolation Kit (Miltenyi Biotec, Germany). […] Human melanoma cell lines A375, A2058, WM9, 903 were obtained from Meenhard Herlyn's laboratory (The Wistar Institute, Philadelphia, PA, USA) and they were routinely tested for mycoplasma and DNA fingerprinted (Liu, et al., 2018, Nat Commun 9: 5426). Lung cancer cell line H1975, Colon cancer cell line HT-29, Gastric cancer cell line NCI-N87 were purchased from ATCC. Daudi cells were obtained from Andrei Thomas-Tikhonenko Lab at the University of Pennsylvania and Children's Hospital of Philadelphia, K562 cells were obtained from Michael Milone Lab at the University of Pennsylvania. BRAFi and MEKi combination therapy resistant (CR) cell lines WM9-CR and A2058-CR were generated as described before (Lu, et al., 2017, Nature 550: 133-136).
Flow cytometry: PBMCs and γδ T cell phenotypes were analyzed by flow cytometry. Briefly, single-cell suspensions were surface-stained for 30 min at 4° C. in dark, and […] staining was performed for 60 min after fixation and permeabilization using a True-Nuclear™ Transcription Factor Buffer Set (BioLegend, CA, USA). CFSE Cell Proliferation Kit for flow cytometry was purchased from Invitrogen (ThermoFisher Scientific, MA, USA). Fluorescein-conjugated antibodies were used. Data were acquired on LSRA/B or Fortessa B flow cytometers (BD Biosciences, NJ, USA) at Flow Cytometry and Cell Sorting Resource Laboratory at the University of Pennsylvania and analyzed with FlowJo software (Tree Star, Ashland, OR).

γδ T cells = experiment: Expansion of γδ T cells ex vivo from PBMC with ZOL or anti-γδTCR Ab plus IL-2; assay type: cell-based, human
Experimental: Expansion of γδ T cells ex vivo. PBMC were plated at 2×10^6 cells per well in 24-well flat-bottomed plates at 37° C. in a humidified atmosphere of 5% CO2. The standard culture medium contains RPMI 1640 (Gibco), containing 10% FBS (Gibco), 2 mM L-glutamine (Gibco), 100 U/ml penicillin (Gibco), streptomycin (Gibco) and 200 IU/ml IL-2 (PeproTech, Rocky Hill, NJ) (Castella et al., Nature communications. 2017; 8:15663.) 5 μM zoledronic acid (Sigma-Aldrich, St. Louis, MO USA) was added into the culture medium at the first day and the medium containing IL-2 changed every two days. In some cases, 24-well plates were pre-coated with 0.5 μg/ml anti-γδTCR Ab (Immunotech, Beckman Coulter, Fullerton, CA) and then PBMCs were added to the anti-γδTCR Ab-coated wells and cultured in the standard culture medium mentioned above. The viability and cell number of γδ T cells were evaluated by the trypan blue staining assay, and the percentage of γδ T cells counted by flow cytometry (Ryan et al., Proc NatlAcadSci USA. 2016; 113(50):14378-83).
Antibodies and flow cytometry analyses. […] Samples were acquired using a LSR-A flow cytometer (BD Biosciences, Baltimore, MD) and analyzed using FlowJo software (Tree Star Inc., Ashland, OR).

[1] = tested on: UACC903 and A2058 melanoma cells; experiment: Cytotoxicity and 3-D tumor spheroid assays with γδ T cells expanded by ZOL or anti-γδTCR antibody; assay type: cell-based, human
Experimental: Cytotoxicity assays. The CytoTox 96® Non-Radioactive Cytotoxicity Assay (Promega, Madison, WI) was applied to measure the cytotoxicity of expanded Vγ9Vδ2 T cells. In this respect, A375 (2×10^4 cells/well), A2058 (2×10^4 cells/well), and 903 (2×10^4 cells/well) melanoma cells were used as target cells and seeded into a 96-round well plate, and expanded Vγ9Vδ2 T cells (1×10^5 cells/well) served as effector cells were directly added to individual wells incubated overnight. The supernatants were collected and the lactate dehydrogenase activity was detected. Controls for spontaneous lactate dehydrogenase release from effector and target cells, the target maximum release, as well as the culture medium background were measured simultaneously (Zhou et al., Cell Mol Immunol. 2012; 9(1):34-44).
3-D Spheroid Assays. The 96-well plate was pre-coated with 50 μL 1.5% Agarose (LONZA, Rockland, ME). Melanoma cells (A2058 and UACC 903 cells) were labeled with CellTracker™ Orange CMRA Dye (Thermo Fisher Scientific, Waltham, MA) and seeded at 2×10^4 cells/well and allowed to form spheroids over 48 hours. […] Infiltrated spheroids were analyzed at 48 h using confocal microscope (Leica, Wetzlar, Germany). Spheroids were divided into single cells and CFSE+ cells infiltrating the spheroids was counted by flow cytometry.

purified γδ T cells = experiment: CFSE proliferation of purified naive γδ T cells; assay type: cell-based, human; conditions: ZOL+PBMCs group, same-donor PBMCs not labeled
Experimental: Primary cells and cell lines: PBMCs and monocytes were obtained from Human Immunology Core at the University of Pennsylvania, which were obtained from healthy donors-Using informed consent and approved by Institutional Review Board. For γδ T cell expansion, PBMCs were cultured with RPMI1640 media supplemented with 10% FBS (HyClone, GE Healthcare, UT, USA), 100 U/ml Penicillin-Streptomycin, 2 mM L-Glutamine, 1/1000 2-Mercaptoethanol (2-Me) (Gibco, ThermoFisher Scientific, MA, USA) (or without 2-Me as indicated) and 200 units/ml of Recombinant Human IL-2 (PeproTech, NJ, USA) in 24-well microplates, new media added and supplemented every other day. TCR-γδ T cells were expanded in 24-well tissue culture treated microplates that were coated with mouse-monoclonal Anti-Pan-TCR γδ antibody (1.0 ug/ml in PBS; IMMU510, IM1349, Beckman). For naive γδT cell isolation, PBMCs were purified using a commercial Human TCR γ/δ T Cell Isolation Kit (Miltenyi Biotec, Germany). Purified naive γδ T cells routinely exceeded >95% […] by flow cytometry. […]
Flow cytometry: PBMCs and γδ T cell phenotypes were analyzed by flow cytometry. […] Data were acquired on LSRA/B or Fortessa B flow cytometers (BD Biosciences, NJ, USA) at Flow Cytometry and Cell Sorting Resource Laboratory at the University of Pennsylvania and analyzed with FlowJo software (Tree Star, Ashland, OR).

Vδ2 T cells in Hu-Mice = experiment: Vδ2 T cell expansion from PBMCs of humanized mice; assay type: cell-based; conditions: PBMCs from four Hu-Mice, 10 days
Excerpt: Humanized Mice (Hu-Mice): Humanized mice were generated at the Wistar Institute as described (Somasundaram, et al., 2021, Nat Commun 12: 346). Briefly, the humanized mouse model is developed by reconstituting immunodeficient NSG mice with fetal liver-derived CD34+ human hematopoietic stem cells, grafted intravenously, and autologous fetal thymus chunks, grafted under the renal capsule, to promote rapid human T-cell differentiation.
NSG mice engrafted with human hematopoietic stem (CD34+) cells or peripheral blood leukocytes (Hu-Mice) are a useful tool to study immunotherapy (Somasundaram, et al., 2021, Nat Commun 12: 346). However, it was previously unclear whether these mice have functional human γδ T cells. As shown herein, CD3^+VS2^+ T cells are present in the PBMCs of Hu-Mice (FIG. 32A). PBMCs from four Hu-Mice were cultured using human PBMCs culture media and were stimulated with IPP plus resiquimod, or ZOL, for 10 days.

melanoma cells = experiment: LDH release cytotoxicity of expanded γδ T cells to melanoma cell lines; assay type: cell-based, human; conditions: E:T 5:1
Experimental: Cytotoxicity: Cytotoxicity of γδ T cells against melanoma cells was measured by lactate dehydrogenase (LDH) release using the CytoTox 96® Non-Radioactive Cytotoxicity Assay kit (G1780, Promega, WI, USA) as described (Zhu, et al., 2016, Molecular Medicine 22: 737-746). Briefly, Melanoma cells were seeded at 4×10^4 cells/well in 50 μl standard growth medium in 96-well plates, while γδ T cells were seeded at effective target ratio E:T=5:1 in the same volume of PBMC culture media at the same time. After the indicated time, plates were spin down briefly and 50 μl supernatants were then harvested for further analysis. Absorbance at 490 nm was read using a BioTek Synergy HT reader (BioTek Instruments, VT, USA) after LDH activity detection, the percentage of cytotoxicity was calculated as (Experimental-Effector Spontaneous-Target Spontaneous)/(Target Maximum-Target Spontaneous)×100.

[2] = tested on: gastric, colon and lung cancer cells; experiment: LDH release cytotoxicity of expanded γδ T cells to epithelial cancer cell lines; assay type: cell-based, human; conditions: E:T 5:1; resiquimod 10 μg/ml

Experimental for monocytes: FIG. 30C provides data for purified monocytes cultured with resiquimod for 24 h with indicated concentration, and the viability and mortality were detected with Annexin V/7-AAD apoptosis kit and flow cytometry.

Structure (SMILES): OCCS [2-mercaptoethanol]
- effect of antioxidant in the culture medium on Vδ2 T cell expansion (Vδ2 T cells; IPP plus resiquimod, 8 days, medium with or without 2-Me): did not affect Vδ2 T cell expansion

Structure (SMILES): NC(=O)[C@H]1CCS[C@@H]2C[C@]3(CCCN3C(=O)Cc3ccc(NC(=O)COc4ccc(Cl)cc4Cl)cc3)C(=O)N12 [ST2825]
- effect of MyD88 inhibition on resiquimod co-stimulation of Vδ2 T cell expansion (Vδ2 T cells; PBMCs with IPP or IPP plus resiquimod): eliminated the co-stimulatory function of resiquimod

Structure (SMILES): O=P(O)(O)C(O)(Cn1ccnc1)P(=O)(O)O [ZOL, zoledronate]
- γδ T cell subsets expanded (γδ T cells; PBMCs expanded by ZOL or anti-TCRγδ Ab): preferentially expanded Vδ2 cells
- γδ T cell expansion, ZOL compared with anti-γδTCR antibody (γδ T cells; PBMCs of healthy donors, 10 day expansion with IL-2): significantly better than that of anti-γδT TCR antibody; also recorded: better expansion of γδ T cells than anti-γδTCR antibody
- cytotoxicity of tumor spheroid assays [1]: comparable results
- Vδ2 T cell (CFSE+) proliferation when PBMCs were added to the culture system (purified γδ T cells): regained the capability of inducing Vδ2 T cells (CFSE+) proliferation
- expansion of peripheral Vδ2 T cells in Hu-Mice (Vδ2 T cells in Hu-Mice): approximately a thousand-fold expansion

Structure (SMILES): CCNCc1nc2c(N)nc3ccccc3c2n1CC(C)(C)O [gardiquimod]
- co-stimulatory effect on IPP induced Vδ2 T cell expansion (Vδ2 T cells; PBMCs): promoted Vδ2 T cell expansion

Structure (SMILES): CC(C)Cn1cnc2c(N)nc3ccccc3c21 [imiquimod]
- co-stimulatory effect on IPP induced Vδ2 T cell expansion (Vδ2 T cells; PBMCs): promoted Vδ2 T cell expansion

Structure (SMILES): CCOCc1nc2c(N)nc3ccccc3c2n1CC(C)(C)O [resiquimod]
- efficacy and cytotoxicity compared among three TLR7/8 agonists (Vδ2 T cells; co-stimulation with IPP, PBMCs, day 7): best efficacy with the least cytotoxicity
- cytotoxic effect of γδ T cells expanded using pan-anti-γδTCR antibody to melanoma cell lines (melanoma cells; A375, 12051u, 903, A2058, WM9, A2058CR, WM9CR, resiquimod 10 μg/ml): significantly enhanced the cytotoxic effect
- cytotoxic effect of γδ T cells expanded using IPP (melanoma cells; A375 and A2058, about 13 days expansion with or without resiquimod): significantly enhanced the cytotoxic effect
- cytotoxic effect of γδ T cells expanded using pan-anti-γδTCR antibody to epithelial cancer cells [2]: significantly enhanced the cytotoxic effect
- apoptosis and cell death of monocytes (monocytes): induced apoptosis and cell death in some monocytes

Structure (SMILES): CCC(=O)N1CCN(c2ccc(-n3c(=O)ccc4cnc5ccc(-c6cnc7ccccc7c6)cc5c43)cc2C(F)(F)F)CC1 [torin1]
- expansion of Vδ2 T cells induced by IPP in presence of mTOR inhibitor (Vδ2 T cells; PBMCs with IPP): significantly reduced
- inhibition of Vδ2 T cell expansion by IPP plus resiquimod, relative to IPP (Vδ2 T cells; PBMCs with IPP plus resiquimod and mTOR inhibitor): more prominent
